Earlier results in patent publication US6346634B1, “Chemical compound containing a superoxide scavenger and an organic nitrate or nitrite moiety” (Teijin Limited, priority 1999, dated 2002).

Target: XO (Homo sapiens, UniProt P47989)
Conditions: inhibition of superoxide-generating NADH oxidase activity

XO, sequence (P47989 whole entry): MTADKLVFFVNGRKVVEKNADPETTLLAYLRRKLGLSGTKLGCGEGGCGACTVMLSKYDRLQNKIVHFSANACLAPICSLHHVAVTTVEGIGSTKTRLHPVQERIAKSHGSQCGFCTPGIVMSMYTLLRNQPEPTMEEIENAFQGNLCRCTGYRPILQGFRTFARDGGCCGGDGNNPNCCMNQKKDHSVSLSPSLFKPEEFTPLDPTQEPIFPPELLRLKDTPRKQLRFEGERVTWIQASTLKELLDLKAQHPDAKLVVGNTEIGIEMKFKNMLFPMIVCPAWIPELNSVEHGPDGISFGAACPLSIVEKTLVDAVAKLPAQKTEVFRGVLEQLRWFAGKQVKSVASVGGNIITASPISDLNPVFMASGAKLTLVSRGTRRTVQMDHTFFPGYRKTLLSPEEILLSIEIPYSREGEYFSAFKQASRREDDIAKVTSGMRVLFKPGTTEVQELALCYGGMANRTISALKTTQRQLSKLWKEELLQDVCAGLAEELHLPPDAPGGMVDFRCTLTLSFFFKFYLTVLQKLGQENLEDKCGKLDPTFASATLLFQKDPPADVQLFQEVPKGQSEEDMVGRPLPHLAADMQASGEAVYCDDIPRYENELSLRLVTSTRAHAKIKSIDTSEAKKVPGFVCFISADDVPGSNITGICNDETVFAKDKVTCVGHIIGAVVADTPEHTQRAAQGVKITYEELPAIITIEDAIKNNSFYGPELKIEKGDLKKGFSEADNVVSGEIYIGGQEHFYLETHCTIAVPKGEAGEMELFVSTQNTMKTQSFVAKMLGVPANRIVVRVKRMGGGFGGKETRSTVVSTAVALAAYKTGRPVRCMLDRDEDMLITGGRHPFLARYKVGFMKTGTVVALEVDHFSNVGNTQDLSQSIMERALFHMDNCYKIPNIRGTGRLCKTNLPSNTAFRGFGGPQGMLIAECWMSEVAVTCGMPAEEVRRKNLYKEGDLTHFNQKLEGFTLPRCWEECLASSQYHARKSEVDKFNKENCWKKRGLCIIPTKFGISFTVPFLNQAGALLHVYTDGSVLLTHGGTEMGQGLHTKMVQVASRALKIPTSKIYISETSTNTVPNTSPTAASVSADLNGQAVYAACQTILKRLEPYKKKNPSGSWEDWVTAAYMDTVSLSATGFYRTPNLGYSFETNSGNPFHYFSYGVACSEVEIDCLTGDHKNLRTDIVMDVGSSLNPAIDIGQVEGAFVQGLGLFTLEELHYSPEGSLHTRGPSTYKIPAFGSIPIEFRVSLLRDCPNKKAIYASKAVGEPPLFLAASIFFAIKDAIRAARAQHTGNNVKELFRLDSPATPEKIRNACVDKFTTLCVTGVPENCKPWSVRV

Row | SMILES | NADH-oxidizing activity of XO
1 | O=c1[nH]c(=O)c2c[nH]nc2[nH]1 [oxypurinol] | not suppressible
2 | Oc1ncnc2[nH]ncc12 [allopurinol] | not suppressible
3 | Nc1c(-c2cccc(C(F)(F)F)c2)nsc1C(=O)O [Amfiutizole] | not suppressible
4 | c1ccc2c(c1)[I+]c1ccccc1-2 [diphenyleneiodonium] | blocked
5 | COc1cc(-c2cnn3c(=O)nc[n-]c23)ccc1[S+]([O-])c1ccccc1.[Na+] (centres unmarked) [BOF-4272] | not suppressible
